Laboratory results from PubChem BioAssay (NCI).
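Each compound was tested at five concentrations against cells in 96-well plates for 48 hours. At the GI50, growth is halved. TGI marks complete inhibition of growth.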

What was measured:
Assay in all cases: growth of human tumour cells (NCI), 48 h
COLO 205 colon = test system: COLO 205 colon
HT29 colon = test system: HT29 colon
CCRF-CEM leukemia = test system: CCRF-CEM leukemia
786-0 renal = test system: 786-0 renal
SW-620 colon = test system: SW-620 colon
A498 renal = test system: A498 renal
EKVX NSCLC = test system: EKVX NSCLC
SNB-19 CNS = test system: SNB-19 CNS
RPMI-8226 leukemia = test system: RPMI-8226 leukemia

Row | Structure (SMILES) | TGI (COLO 205 colon) | TGI (HT29 colon) | TGI (CCRF-CEM leukemia) | TGI (786-0 renal) | TGI (SW-620 colon) | TGI (A498 renal) | TGI (EKVX NSCLC) | TGI (SNB-19 CNS) | TGI (RPMI-8226 leukemia) | GI50 (COLO 205 colon) | GI50 (HT29 colon) | GI50 (RPMI-8226 leukemia) | GI50 (786-0 renal) | GI50 (A498 renal) | GI50 (EKVX NSCLC) | GI50 (SNB-19 CNS) | GI50 (SW-620 colon)
1 | CCOC(=O)C1=C(Nc2ccc(Br)cc2)OCC1=O | > 100 µM | > 100 µM | > 100 µM | > 100 µM | > 100 µM | > 100 µM | > 100 µM | > 100 µM |  |  |  |  |  |  |  |  | 
2 | CCOC(=O)C(C)(c1c(C)[nH]c2ccccc12)c1c(C)[nH]c2ccccc12 |  | 30.3 µM | 58 µM | 43 µM | 40.8 µM | 36.6 µM | > 100 µM |  | 46.2 µM |  |  |  |  |  |  |  | 
3 | CC1CCC(C(C)(C)c2ccccc2)C(=O)C1 (stereo not given) | > 100 µM | > 100 µM | > 100 µM | > 100 µM | > 100 µM | > 100 µM | > 100 µM | > 100 µM | > 100 µM |  |  |  |  |  |  |  | 
4 | COc1ccc2nc3cc(Cl)ccc3c(Sc3ccc(NC(C)=O)cc3)c2c1 | > 34.2 µM | > 100 µM | > 100 µM | > 20.1 µM | > 22.3 µM | > 60.9 µM | > 23.8 µM | > 26.4 µM | 83.8 µM |  |  |  |  |  |  |  | 
5 | COC(=O)c1c[nH]cc1CCCCc1c[nH]cc1C(=O)OC | > 100 µM | > 100 µM | > 100 µM | > 100 µM | > 100 µM | > 100 µM | > 100 µM | > 100 µM |  |  |  |  |  |  |  |  | 
6 | NC(=O)c1cn(Cc2ccccc2)c(=O)n1Cc1ccccc1 | > 100 µM | > 100 µM | > 100 µM | > 100 µM | > 100 µM | > 100 µM | > 100 µM | > 100 µM | > 100 µM |  |  |  |  |  |  |  | 
7 | COc1ccc(-c2cc(-c3ccc(Nc4ccnc5cc(Cl)ccc45)cc3)nc(N3CCOCC3)n2)cc1 | > 100 µM | > 100 µM |  | 5.72 µM |  | 86.7 µM | > 100 µM | > 100 µM | > 100 µM | 3.14 µM | 3.28 µM | 3.79 µM | 2.26 µM | 27.5 µM | > 100 µM | 3.86 µM | 
8 | CC1COS(=O)O1 (stereo not given) | > 100 µM | > 100 µM | > 100 µM | > 100 µM | > 100 µM | > 100 µM | > 100 µM | > 100 µM | > 100 µM |  |  |  |  |  |  |  | 
9 | CC(C)(C)OC(=O)N1C2CCCC23O[C@@H]1c1cc2c(cc1C3=O)OCO2 (stereo not given in full) |  | > 100 µM | > 100 µM | > 100 µM | > 100 µM |  | > 100 µM | > 100 µM |  |  |  |  |  |  |  |  | 
10 | O=C1C=CC(=CC=C2C=CN(CCCCCCCCCCC(=O)NCCCCCCCCCCCC(=O)O)C=C2)C=C1 | > 100 µM | > 100 µM | > 100 µM | > 100 µM | > 100 µM | > 100 µM | > 100 µM | > 100 µM | > 100 µM |  |  |  |  |  |  |  | 
11 | CC12CCC(=O)N1c1cccnc1N2 (stereo not given) | > 100 µM | > 100 µM | > 100 µM | > 100 µM | > 100 µM | > 100 µM | > 100 µM |  | > 100 µM |  |  |  |  |  |  |  | 
12 | O=C1c2ccccc2C(=O)N1C/C=N/NS(=O)(=O)c1ccc(Br)cc1 | > 100 µM | > 100 µM | > 100 µM | > 100 µM | > 100 µM | > 100 µM | > 100 µM | > 100 µM | > 100 µM |  |  |  |  |  |  |  | 
13 | Cc1ccc(C)c(N2C(=O)C(=O)C(c3nc4ccccc4o3)/C(=N/N)C2=O)c1 (stereo not given) | > 100 µM | > 100 µM | > 100 µM | > 100 µM | > 100 µM | > 100 µM | > 100 µM | > 100 µM |  |  |  |  |  |  |  |  | 
14 | NC(CCc1ncc(C(=O)O)s1)C(=O)O (stereo not given) | > 100 µM | > 100 µM | > 100 µM | > 100 µM | > 100 µM | > 100 µM | > 100 µM |  | > 100 µM |  |  |  |  |  |  |  | 
15 | C1=NC(N(Cc2ccccc2)Cc2ccccc2)N(Cc2ccccc2)N1 (stereo not given) | 30.8 µM | 30.9 µM | > 100 µM | 35.4 µM | 49.9 µM | 32.2 µM | 56.2 µM | 55.3 µM | 32.9 µM |  |  |  |  |  |  |  | 
16 | COc1cc(/C=N\O[Si](C)(C)C(C)(C)C)ccc1O[Si](C)(C)C(C)(C)C | > 100 µM | > 100 µM | > 100 µM | > 100 µM | > 100 µM |  | > 100 µM | > 100 µM | > 100 µM |  |  |  |  |  |  |  | 
17 | C=CCC1(C)CCCCC1(O)CS(=O)c1ccccc1 (stereo not given) | > 100 µM | > 100 µM | > 100 µM | > 100 µM | > 100 µM | > 100 µM | > 100 µM | > 100 µM | > 100 µM |  |  |  |  |  |  |  | 

Row | Structure (SMILES) | TGI (COLO 205 colon) | TGI (HT29 colon) | TGI (CCRF-CEM leukemia) | TGI (786-0 renal) | TGI (SW-620 colon) | TGI (A498 renal) | TGI (EKVX NSCLC) | TGI (SNB-19 CNS) | TGI (RPMI-8226 leukemia) | GI50 (COLO 205 colon) | GI50 (HT29 colon) | GI50 (RPMI-8226 leukemia) | GI50 (786-0 renal) | GI50 (A498 renal) | GI50 (EKVX NSCLC) | GI50 (SNB-19 CNS) | GI50 (SW-620 colon)
18 | O=C1C2[C@@H](C(=O)N1c1ccc(Br)cc1)C13C(=CC2([N+](=O)[O-])[C@@H]2C(=O)N(c4ccc(Br)cc4)C(=O)[C@@H]21)c1ccccc1N3c1ccccc1 (stereo not given in full) | > 100 µM |  | > 100 µM | 31.1 µM | > 100 µM |  | > 100 µM | > 100 µM | > 100 µM |  |  |  |  |  |  |  | 
19 | O=C1c2ccc3c4ccccc4n(-c4ccccc4)c3c2C(=O)N1c1ccc(Cl)cc1 | > 100 µM | > 100 µM | > 100 µM | > 100 µM | > 100 µM | > 100 µM | > 100 µM | > 100 µM |  |  |  |  |  |  |  |  | 
20 | N#Cc1c(-c2ccco2)cc(-c2ccc(N)cc2)[nH]c1=O |  | > 100 µM | > 100 µM | > 100 µM | > 100 µM | > 100 µM | > 100 µM | > 100 µM | > 100 µM |  |  |  |  |  |  |  | 
21 | CC(=O)OCCOCNC(=S)N/N=C/c1ccc([N+](=O)[O-])s1 | 4.61 µM | > 100 µM | > 100 µM | > 100 µM | > 100 µM | > 100 µM | > 100 µM | > 100 µM | > 100 µM |  |  |  |  |  |  |  | 
22 | Cc1c(Cl)cccc1NC(=O)c1cccc([N+](=O)[O-])c1O | 27.3 µM | 82 µM | 34.7 µM | > 78.1 µM | > 100 µM | 45.9 µM | > 87.6 µM | > 100 µM | > 60 µM |  |  |  |  |  |  |  | 
23 | CCC[CH2][Sn]1([CH2]CCC)[O]CC(COc2c(Cl)cc(Cl)cc2Cl)[O]1 (stereo not given) | 2.75 µM | 4.19 µM |  | 2.74 µM | 2.62 µM | 2.65 µM | 17.3 µM | 2.64 µM | 3.72 µM | 1.39 µM | 2.09 µM | 0.78 µM | 1.41 µM | 1.31 µM | 5.51 µM | 1.35 µM | 1.13 µM
24 | COc1cc(-c2nnc3n2NC=C(C(=O)O)S3)cc(OC)c1OC | > 70.3 µM | > 100 µM | > 67.5 µM | > 76.3 µM | > 62 µM | > 100 µM | > 100 µM | > 100 µM | > 68.7 µM |  |  |  |  |  |  |  | 
25 | NC(=S)N/N=C1\CCCC\C1=C/c1ccccc1 | > 100 µM | 50.3 µM | > 100 µM | > 100 µM | > 100 µM | > 100 µM | > 100 µM | > 100 µM | 38.2 µM |  |  |  |  |  |  |  | 
26 | Cc1ccc(C)c(N2C(=O)C(=O)C(c3nc4ccccc4o3)/C(=N\NC(=O)c3ccccc3O)C2=O)c1 (stereo not given) | 72.2 µM | > 100 µM | 42.1 µM | > 100 µM | > 100 µM | 76.8 µM | > 100 µM | > 100 µM | 77.8 µM |  |  |  |  |  |  |  | 
27 | Cc1ccc2[c](c1)[Sn]([c]1ccccc1)([c]1ccccc1)[c]1cc(C)ccc1N2C | 52.2 µM | > 100 µM |  | > 100 µM | 53.7 µM |  | > 100 µM | > 100 µM |  | 23.1 µM | 37.3 µM |  | 16.2 µM |  | 41.4 µM | > 100 µM | 18.9 µM
28 | COc1cc2c(cc1OC)C1Cc3cc(OC)c(OC)cc3N1CC2 (stereo not given) | 52.1 µM | > 100 µM | > 100 µM | 37.9 µM | > 100 µM | > 100 µM | 89.5 µM | > 100 µM | 88 µM |  |  |  |  |  |  |  | 
29 | C[P+](C)(C)c1ccccc1 | > 100 µM | > 100 µM | > 100 µM | > 100 µM | > 100 µM |  | > 100 µM | > 100 µM | > 100 µM |  |  |  |  |  |  |  | 
30 | Cc1ccc(N2C(=O)N(c3ccc(C)cc3)C3(SC=NN3C)C2=O)cc1 (stereo not given) | > 100 µM | > 100 µM | > 100 µM | > 100 µM | > 100 µM | > 100 µM | > 100 µM | > 100 µM | > 100 µM |  |  |  |  |  |  |  | 
31 | C1COCCSC2=C(SCCO1)SC(=C1SC3=C(SCCOCCOCCS3)S1)S2 | > 100 µM | > 100 µM | > 100 µM | > 100 µM | > 100 µM | > 100 µM | > 100 µM | > 100 µM |  |  |  |  |  |  |  |  | 
32 | CCc1cccc(C)c1NC(=O)CC1C(=O)Nc2ccccc2S1=O (stereo not given) | > 100 µM | > 100 µM |  | > 100 µM | > 100 µM |  |  | > 100 µM | > 100 µM |  |  |  |  |  |  |  | 
33 | CSc1ccc2c(cc1=O)[C@@H](NC(=O)c1cc(O)c(O)c(O)c1)CCc1cc(O)c(O)c(O)c1-2 | 75.3 µM | 48.7 µM | 18.1 µM | > 100 µM | 39.6 µM | > 100 µM | 56.7 µM | > 100 µM |  |  |  |  |  |  |  |  | 
34 | CC(=O)[CH-]C(=O)c1ccccc1.CC(=O)[CH-]C(=O)c1ccccc1.O=S(=O)([O-])c1cc([O-])c2c([O-])cc(S(=O)(=O)[O-])cc2c1.[Na+].[Ti+4] |  | > 100 µM |  | > 100 µM | > 100 µM | > 100 µM | > 100 µM | > 100 µM | > 100 µM |  | > 100 µM | > 100 µM | > 100 µM | > 100 µM | > 100 µM | > 100 µM | > 100 µM
